# Experimental data: patent publication US20220105127A1, “METHODS FOR PROVIDING THE BENEFITS OF METHIONINE RESTRICTION WITHOUT DIETARY RESTRICTION” (priority 2020, published 2022)
# Key:
# C57BL/6J mice [1] = assay: Experiment 1: high-fat diet with selenium compounds, body mass, fat pad and liver mass; type: in vivo, mouse
# Procedure: (§1) All animal studies conducted were approved by the Institutional Animal Care and Use Committee (IACUC) of the Orentreich Foundation for the Advancement of Science, Inc. (Permit Number: 0511 MB). C57BL/6J mice (stock number 000664) were purchased from the Jackson Laboratories (Bar Harbor, Me.) and housed in a conventional animal facility maintained at 20±2° C., 50±10% relative humidity, with a 12 hr/12 hr light/dark photoperiod. Food and water were provided ad libitum. Upon arrival, mice were acclimatized for up to one week and fed Purina Lab Chow 5001 (Ralston Purina, Co.; St. Louis, Mo.).
# At the beginning of the experiment, the mice were divided into 5 groups with each group being fed one of five isocaloric (5.3 kcal/gm) high-fat diets ad libitum for several weeks. Each high-fat diet comprising a base of 12% kcal protein, 31% kcal carbohydrate, and 57% kcal fat. The first group's diet was the control-fed diet and included the base and methionine in an amount that represented about 0.86% of the weight of the food (sometimes referred to as “control group,” “control-fed group,” or “group 1”). The second group's diet was the methionine-restricted group where the base-diet was restricted to 0.12% methionine as a percentage of the total weight of the food (sometimes referred to as “methionine-restricted group” or “group 2”). The third group was fed the base diet containing 0.86% methionine, which was supplemented with sodium selenite in an amount representing 0.0073% of the total weight of the food (sometimes referred to as “sodium selenite-supplemented group” or “group 3”). The fourth group was fed the base diet containing 0.86% methionine, supplemented with 0.0036% selenomethionine, as a percentage of the total food weight (sometimes referred to as “group 4”). The fifth group was fed the base diet containing 0.86% methionine as a percentage of the total weight of the food, supplemented with 0.0073% selenomethionine as a percentage of the total weight of the food (sometimes referred to as “group 5”). Amounts of selenium-containing compounds used for this and subsequent experiments were determined from pilot studies aimed at identifying minimal doses that still achieve high efficacy. […] The amount of selenomethionine administered to the animals in the fourth and fifth groups was approximately 1/200 and 1/100 times respectively, of the levels of sulfur-containing amino acids (i.e., methionine and cysteine) present in the subjects' diets.
# Body mass and food consumption were monitored once a week for sixteen weeks. Prior to blood collection, animals were fasted for 4 hours to establish a physiological baseline. Blood was then collected from the retro-orbital plexus and processed using EDTA-K2-coated blood collection tubes (Milian Dutscher Group; Geneva, Switzerland). The resulting plasma was frozen and stored at −80° C. until used for analysis. A portion of each blood sample was used for blood glucose determination using an Abbott Freestyle Lite glucometer and glucose strips (Abbott Diabetes Care, Inc.; Alameda, Calif.). At the end of each study, animals were fasted and bled, as described above. The mice were then sacrificed, their overall body condition was assessed, and certain physiological parameters were measured. The inguinal and perigonadal fat pads, as well as liver of each mouse, were harvested by surgical resection, weighed, flash frozen, and stored at −80° C.
# C57BL/6J mice [2] = assay: Experiment 3: low-fat diet with selenomethionine, inguinal and perigonadal fat pad weight; type: in vivo, mouse; details: male mice, selenomethionine 0.00015% of food, low-fat diet (10% of calories from fat), 8 week interval, p<0.01; even more effectively than methionine restriction
# Procedure: as §1
# In this experiment, male mice were divided into three groups, with each group being fed a separate low-fat diet ad libitum for 8 weeks. The first group represented the control-fed group (CF group) and was fed a low-fat base diet that included 0.86% methionine as a percentage of total food. The second group was fed a methionine-restricted diet (MR group) where the amount of methionine was restricted to 0.12% of total consumed. The third group was fed the base diet supplemented with selenomethionine (SMS group) in an amount representing 0.00015% of total food consumed.
# FIGS. 9A and 9B depict the reduced white adipose tissue accumulation of the SMS group as compared with the MR group and the CF group. […]
# [3] = female mice, high-fat diet, untreated = 100%, sodium selenite 0.0073% of food, selenomethionine 0.0036% or 0.0073% (which not stated)
# [4] = male mice, high-fat diet, untreated = 100%, sodium selenite 0.0073% of food, selenomethionine 0.0036% or 0.0073% (which not stated)
compound,measurement,setting,value
"C[Se]CC[C@H](N)C(=O)O [Selenomethionine, selenomethionine]","Inguinal Fat Mass, Females",C57BL/6J mice [1]; [3],48%
same,"Perigonadal Fat Mass, Females",C57BL/6J mice [1]; [3],55%
same,"Total Body Mass, Females","C57BL/6J mice [1]; female mice, high-fat diet, untreated = 100%, sodium selenite 0.0073% of food, selenomethionine 0.0036% or 0.0073% (which not stated), 16 weeks",79%
same,"Inguinal Fat Mass, Males",C57BL/6J mice [1]; [4],54%
same,"Perigonadal Fat Mass, Males",C57BL/6J mice [1]; [4],60%
same,"Total Body Mass, Males","C57BL/6J mice [1]; male mice, high-fat diet, untreated = 100%, sodium selenite 0.0073% of food, selenomethionine 0.0036% or 0.0073% (which not stated), 16 weeks",84%
same,overall body mass / diet-induced obesity,"C57BL/6J mice [1]; male mice, selenomethionine 0.0036% and 0.0073% of food, high-fat diet, vs control-fed littermates",dose-dependent protection against diet-induced obesity
same,inguinal and perigonadal adipose tissue,"C57BL/6J mice [1]; male mice, selenomethionine-supplemented high-fat diet",less inguinal and perigonadal adipose tissue
same,liver mass,"C57BL/6J mice [1]; selenomethionine-supplemented vs control animals, high-fat diet",not significantly different
same,"accumulation of inguinal and perigonadal adipose tissue (FIGS. 9A, 9B)",C57BL/6J mice [2],robust protection against the accumulation of adipose tissue
